US6150335A, “Tic-containing opioid dipeptide derivatives useful as analgesics” (Astra AB, priority 1996, dated 2000)
Where a SMILES comes first, the peptide text is derived from it. [ ]: non-standard residue; d: D form. The star is where a group is joined. Tic = O=C(O)[C@@H]1Cc2ccccc2CN1; NHPhenethyl = c1ccc(CCN*)cc1

Tests used:
mice = conditions: S. D. Comer et al. 1993; cited from earlier work
mouse tail flick test = conditions: J. Kamei et al. 1995; cited from earlier work
μ opioid receptor = biological target: T1, μ opioid receptor (Rattus norvegicus, UniProt P33535); experiment: μ opioid receptor binding assay, displacement of [3H]DAMGO from rat brain membranes; conditions: [3H]DAMGO 0.7 nM, Cheng-Prusoff
T1 construct: Male Sprague-Dawley rats (300-350 g) from the Canadian Breeding Laboratories were decapitated and after removal of the cerebellum the brains were homogenized; from tissue; host or cells: rat brain (without cerebellum) membranes, male Sprague-Dawley
Protocol: (§1) μ and δ opioid receptor binding constants (Ki^μ,Ki^δ) of the compounds were determrined by displacement of relatively selective μ and δ radioligands from binding sites in rat brain membrane preparations calculated from the measured IC50 values on the basis of the equation by Cheng and Prusoff, (Y. C. Cheng and W. H. Prusoff Biochem. Pharmnacol. 22, 3099-3102 (1973)).
(§2) The μ-, δ- and κ-opioid receptor affinities of all new analogs were determined in binding assays based on displacement of μ-, δ- and κ-selective radioligands from rat brain membrane binding sites. In the case of κ-ligands guinea pig brain homogenates were used, since the relative proportion of κ-binding sites is higher in guinea pig brain than in rat brain. The experimental procedure being used in our laboratory represents a modified version of the binding assay described by Pasternak et al. (Mol. Pharnacol. 11, 340-351 (1975)). Male Sprague-Dawley rats (300-350 g) from the Canadian Breeding Laboratories were decapitated and after removal of the cerebellum the brains were homogenized in 30 volumes of ice-cold standard buffer (50 mnM Tris HCl , pH 7.7). After centrifugation at 30,000×g for 30 min at 4° C. the membranes were reconstituted in the original volume of standard buffer and incubated for 30 min at 37° C. (to release bound endogenous ligands). Subsequent centrifugation and resuspension of the pellet in the initial volume of fresh standard buffer yielded the final membrane suspension. Aliquots (2 ml) of the membrane preparations were incubated for 1-2 h at 25° C. with 1 ml standard buffer containing the peptide to be tested and one of the following radioligands at the final concentration indicated: [^3 H]DAMGO, μ-selective, 0.7 nM; [^3 H]DSLET, μ-selective, 1.0 nM; and [^3 H]U69,563, κ-selective, 0.5 nM. The incubation was terminated by filtration through Whatman GF/B filters under vacuum at 4° C. Following two washings with 5 ml portions of ice-cold standard buffer the filters were transferred to scintillation vials and treated with 1 ml Protosol (New England Nuclear) for 30 min prior to addition of 0.5 ml acetic acid and 10 ml Aquasol (New England Nuclear). After shaking for 30 min the vials were counted at an efficiency of 40-45%. All experiments were performed in duplicate and repeated at least three times. Specific binding of each of the three radioligands was defined by performing incubations in the presence of cold DAMGO, DSLET and U69,563, respectively, at a concentration of 1 micromolar. Values of half-maximal inhibition (IC50) of specific binding were obtained graphically from semilogarithmic plots. From the measured IC50-values, binding inhibition constants (Ki) were calculated based on Cheng and Prusoff's equation (Biochem. Pharmacol. 22, 3099-3102 (1973)). Ratios of the Ki -values determined in the μ-, δ- and κ-representative binding assays are a measure of the receptor selectivity of the compound under investigation (e.g. Ki^μ /Ki^μ indicates the selectivity for δ-receptors versus μ-receptors).

guinea pig ileum (GPI) = experiment: Guinea pig ileum (GPI) bioassay: inhibition of electrically evoked contractions; type: cell-based; conditions: normalized with [Leu5]enkephalin standard, effect primarily μ-mediated
Protocol: (§3) Bioassays based on inhibition of electrically evoked contractions of the mouse vas deferens (MVD) and of the guinea pig ileum (GPI) were performed. In the GPI assay the opioid effect is primarily mediated by μ opioid receptors, whereas in the MVD assay the inhibition of the contractions is mostly due to interaction with δ opioid receptors.
(§4) The GPI and MVD bioassays were carried out as reported in P. W. Schiller et al., Biochem. Biophys. Res. Commun. 85, 1332-1338 (1978) and J. DiMaio et al., J. Med. Chem. 25, 1432-1438 (1982). A log-dose response curve was determined with [Leu^5 ]enkephalin as standard for each ileum and vas preparation, and IC50 values of the compounds being tested were normalized according to A. A. Waterfield et al., Eur. J. Pharmacol. 58, 11-18 (1979).

mouse vas deferens (MVD) = experiment: Mouse vas deferens (MVD) bioassay: inhibition of electrically evoked contractions; type: cell-based; conditions: for IC50: inhibition of electrically evoked contractions, normalized with [Leu5]enkephalin standard, effect mostly δ-mediated; for GPI/MVD IC50 ratio: ratio of GPI IC50 to MVD IC50
Protocol: as §3, §4

δ opioid receptor [1] = biological target: T2, δ opioid receptor (Rattus norvegicus, UniProt P33533); experiment: δ opioid receptor binding assay, displacement of [3H]DSLET from rat brain membranes; conditions: for Ki: rat brain membranes, [3H]DSLET 1.0 nM, Cheng-Prusoff; for Ki^μ/Ki^δ: δ versus μ receptor selectivity
T2 construct: Male Sprague-Dawley rats (300-350 g) from the Canadian Breeding Laboratories were decapitated and after removal of the cerebellum the brains were homogenized; from tissue; host or cells: rat brain (without cerebellum) membranes, male Sprague-Dawley
Protocol: as §1
as §2, with “[…];” for “[^3 H]DSLET, μ-selective, 1.0 nM;”

δ opioid receptor [2] = conditions: reported at 23rd European Peptide Symposium 1994; cited from earlier work

T2 sequence (P33533 whole entry): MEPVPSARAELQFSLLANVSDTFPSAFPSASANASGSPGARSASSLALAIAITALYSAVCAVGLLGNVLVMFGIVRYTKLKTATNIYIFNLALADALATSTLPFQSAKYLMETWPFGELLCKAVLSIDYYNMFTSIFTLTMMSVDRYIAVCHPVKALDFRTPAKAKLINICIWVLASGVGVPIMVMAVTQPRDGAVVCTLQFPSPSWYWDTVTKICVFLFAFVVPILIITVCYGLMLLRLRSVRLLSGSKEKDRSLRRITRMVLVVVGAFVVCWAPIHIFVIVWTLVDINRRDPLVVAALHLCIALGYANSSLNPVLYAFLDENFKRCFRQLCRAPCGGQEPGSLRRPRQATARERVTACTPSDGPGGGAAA
T1 sequence (P33535 whole entry): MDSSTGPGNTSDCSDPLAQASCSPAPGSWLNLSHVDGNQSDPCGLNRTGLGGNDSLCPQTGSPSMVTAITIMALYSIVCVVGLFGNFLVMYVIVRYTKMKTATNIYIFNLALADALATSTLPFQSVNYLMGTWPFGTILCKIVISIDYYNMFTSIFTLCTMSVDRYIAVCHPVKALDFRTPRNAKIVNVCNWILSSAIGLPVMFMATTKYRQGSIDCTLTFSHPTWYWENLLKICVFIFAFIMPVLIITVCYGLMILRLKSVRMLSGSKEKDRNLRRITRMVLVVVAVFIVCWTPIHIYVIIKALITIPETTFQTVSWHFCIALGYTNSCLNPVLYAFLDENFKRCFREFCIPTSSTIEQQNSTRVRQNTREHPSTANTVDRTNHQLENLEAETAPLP

Row | Structure (SMILES) | toxicity in mice (mice) | antinociceptive effect (mouse tail flick test) | Ki (μ opioid receptor) | IC50 (guinea pig ileum (GPI)) | IC50 (mouse vas deferens (MVD)) | GPI/MVD IC50 ratio (mouse vas deferens (MVD)) | Ki (δ opioid receptor [1]) | Ki^μ/Ki^δ (δ opioid receptor [1]) | δ agonist / antagonist properties (δ opioid receptor [2])
1 | C=CCN1C[C@H](C)N([C@H](c2ccc(C(=O)N(CC)CC)cc2)c2cccc(O)c2)C[C@H]1C (racemic) [BW 373U86, (±)-4-(a-R*)-a-(2S*,5R*)-4-allyl-2,5-dimethyl-1-piperazinyl)-3-hydroxybenzyl)-N,N-diethylbenzamide] | produced significant toxicity, manifested behaviorally as convulsions and barrel rolling | – | – | – | – | – | – | – | –
2 | CN1CC[C@]2(c3cccc(O)c3)Cc3nc4ccccc4cc3C[C@H]2C1 [TAN-67, 2-methyl-4α,α-(3-hydroxyphenyl)-1,2,3,4,4a,5,12,12aα-octahydroquinolino[2,3,3-g]isoquinoline] | – | no significant antinociceptive effect | – | – | – | – | – | – | –
3 | N[C@@H](Cc1ccc(O)cc1)C(=O)N1Cc2ccccc2C[C@H]1C(=O)NCCc1ccccc1-c1ccccc1 [Example 7] | – | – | 73.5 ± 7.1 nM | > 10000 nM | 418 ± 55 nM | > 23.9 | 4.76 ± 1.7 nM | 15.4 | –
4 | CCOC(=O)C(CNC(=O)[C@@H]1Cc2ccccc2CN1C(=O)[C@@H](N)Cc1ccc(O)cc1)c1ccccc1 (single isomer, unassigned) [Example 16] | – | – | 153 ± 5 nM | > 10000 nM | 8.64 ± 1.31 nM | >1160 | 3.03 ± 0.66 nM | 50.5 | –
5 | NC(=O)C(CNC(=O)[C@@H]1Cc2ccccc2CN1C(=O)[C@@H](N)Cc1ccc(O)cc1)c1ccccc1 (single isomer, unassigned) [Example 17] | – | – | 73.7 ± 0.6 nM | 2140 ± 470 nM | 34 ± 2.9 nM | 62.9 | 21.5 ± 4.2 nM | 3.43 | –
6 | N[C@@H](Cc1ccc(O)cc1)C(=O)N1Cc2ccccc2C[C@H]1C(=O)NCCc1ccccc1 [H-Tyr-Tic-NH--CH2 --CH2 --Ph, reference compound] (H-Tyr-[Tic]-NHPhenethyl) | – | – | 69.1 nM | 2120 nM | 82 ± 10 nM | 25.9 | 5.22 ± 0.02 nM | 13.2 | full, but only moderately potent δ agonist
7 | N[C@@H](Cc1ccc(O)cc1)C(=O)N1Cc2ccccc2C[C@H]1C(=O)NCC(c1ccc([N+](=O)[O-])cc1)c1ccc([N+](=O)[O-])cc1 [Example 24] | – | – | 635 ± 109 nM | 5200 ± 1100 nM | 8.91 ± 1.53 nM | 584 | 7.17 ± 0.24 nM | 88.6 | –
